Laboratory results from US6914045B2, “Glycopeptide antibiotics” (Wyeth Holdings Corporation, priority 2001, dated 2005).

Key:
Experiment in all cases: in vitro antibacterial evaluation, MIC by broth dilution
Type in all cases: cell-based
Settings in all cases: broth dilution, 18 hours at 35° C.
Enterococcus sp. = system: Enterococcus sp.
Experimental: (§1) Methods for in vitro Antibacterial Evaluation (Table 1)
(§2) The minimum inhibitory concentration (MIC), the lowest concentration of the antibiotic which inhibits growth of the test organism, is determined by the broth dilution method using Muller-Hinton II […] (Baltimore Biological Laboratories) following the recommendations of the National Committee for Clinical Laboratory Standards [Methods for dilution antimicrobial susceptibility tests for bacteria that grow aerobically, approved standard M7-A2, National Committee for Clinical Laboratory Standards, Villanova, Pa.].
(§3) An inoculum level of 5×10^5 CFU/mL, and a range of antibiotic concentrations (64-0.06 μg/mL) is used. […] The test organisms include a spectrum of Gram-positive bacteria comprised of Staphylococcus sp., Streptococcus sp. and Enterococcus sp. These organisms include recent clinical isolates that are resistant to methicillin, penicillin and/or vancomycin.

Staphylococcus sp. = system: Staphylococcus sp.
Experimental: as §1, §2, §3

Streptococcus sp. = system: Streptococcus sp.
Experimental: as §1, §2, §3

Escherichia coli = system: Escherichia coli
Outline: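 Broth dilution MIC per NCCLS M7-A2 in Mueller-Hinton II medium, inoculum 5×10^5 CFU/mL, antibiotic range 64-0.06 μg/mL. MIC taken as lowest concentration inhibiting growth.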

CC(c1ccccc1)C1NC(=O)CNC(=O)C(CO)NC(=O)C(C(O)C2CNC(=N)N2C2OC(CO)C(O)C(O)C2O)NC(=O)C(C(O)C2CNC(=N)N2)NC(=O)C(Cc2ccc3oc(-c4ccoc4)nc3c2)NC1=O (stereo not drawn) [Example 38, Cyclo[3-[2-(3-furyl)-1,3-benzoxazol-5-yl]alanyl-3-(2-iminoimidazolidin-4-yl)seryl-3-(3-hexopyranosyl-2-iminoimidazolidin-4-yl)serylserylglycyl-β-methylphenylalanyl]]
32 µg/mL: MIC Enterococcus faecium (GC 4557) (Enterococcus sp.; strain GC 4557) | MIC Staphylococcus aureus (GC 1131) (Staphylococcus sp.; strain GC 1131) | MIC Staphylococcus aureus (GC 4545) (Staphylococcus sp.; strain GC 4545) | MIC Coagulase Negative Staphylococcus (GC 4547) (Staphylococcus sp.; strain GC 4547) | MIC Coagulase Negative Staphylococcus (GC 4548) (Staphylococcus sp.; strain GC 4548) | MIC Streptococcus pneumoniae (ATCC 6301) (Streptococcus sp.; strain ATCC 6301) | MIC Streptococcus pneumoniae (GC 1894) (Streptococcus sp.; strain GC 1894) | MIC Streptococcus pyogenes (GC 4563) (Streptococcus sp.; strain GC 4563) | MIC Streptococcus agalactiae (GC 4564) (Streptococcus sp.; strain GC 4564) | MIC Escherichia coli (GC 4560) (Escherichia coli; strain GC 4560)
16 µg/mL: MIC Staphylococcus haemolyticus (GC 4546) (Staphylococcus sp.; strain GC 4546) | MIC Coagulase Negative Staphylococcus (GC 6257) (Staphylococcus sp.; strain GC 6257)
64 µg/mL: MIC Enterococcus faecalis (GC 4553) (Enterococcus sp.; strain GC 4553) | MIC Enterococcus avium (GC 4558) (Enterococcus sp.; strain GC 4558) | MIC Staphylococcus aureus (ATCC 29213) (Staphylococcus sp.; strain ATCC 29213) | MIC Staphylococcus aureus (GC 3051) (Staphylococcus sp.; strain GC 3051) | MIC Staphylococcus aureus (GC 3053) (Staphylococcus sp.; strain GC 3053) | MIC Staphylococcus aureus (GC 4541) (Staphylococcus sp.; strain GC 4541) | MIC Staphylococcus aureus (GC 4542) (Staphylococcus sp.; strain GC 4542) | MIC Staphylococcus aureus-SMITH (GC 4543) (Staphylococcus sp.; strain GC 4543) | MIC Staphylococcus aureus (GC 4544) (Staphylococcus sp.; strain GC 4544) | MIC Coagulase Negative Staphylococcus (GC 4549) (Staphylococcus sp.; strain GC 4549) | MIC Coagulase Negative Staphylococcus (GC 4551) (Staphylococcus sp.; strain GC 4551) | MIC Streptococcus pneumoniae (GC 4565) (Streptococcus sp.; strain GC 4565) | MIC Escherichia coli (ATCC 25922) (Escherichia coli; strain ATCC 25922) | MIC Escherichia coli (GC 4559) (Escherichia coli; strain GC 4559)
>128 µg/mL: MIC Enterococcus faecalis (GC 3059) (Enterococcus sp.; strain GC 3059)
128 µg/mL: MIC Enterococcus faecalis (ATCC 29212) (Enterococcus sp.; strain ATCC 29212) | MIC Enterococcus faecalis (GC 2242) (Enterococcus sp.; strain GC 2242) | MIC Enterococcus faecium (GC 2243) (Enterococcus sp.; strain GC 2243) | MIC Enterococcus faecalis (GC 2691) (Enterococcus sp.; strain GC 2691) | MIC Enterococcus faecalis (GC 4552) (Enterococcus sp.; strain GC 4552) | MIC Enterococcus faecalis (GC 4554) (Enterococcus sp.; strain GC 4554) | MIC Enterococcus faecium (GC 4556) (Enterococcus sp.; strain GC 4556) | MIC Enterococcus faecalis (GC 6189) (Enterococcus sp.; strain GC 6189)
